In paper PMC12299477 (Viruses, 2025):

Assays:
IFV-A H3N2 = assay: Virus inhibition assay, IFV-A H3N2 on MDCK cells; format: cell-based; conditions: Influenza A virus, read-out: EC50 (µM) (95% CI)
[1] = Cell viability MTS assay on Hep-2 cells; conditions: human
RSV-A2 [2] = assay: Anti-RSV activity on a 3D model of human bronchial epithelium; format: cell-based, respiratory syncytial virus; conditions: for Reduction in RSV progeny: 72 h post-infection, 10,000 PFUs
[3] = system: human bronchial epithelium (MucilAir); assay: LDH cytotoxicity assay on 3D human bronchial epithelium; format: cell-based; conditions: 6 µM and 12 µM, harvested daily up to 72 h
[4] = Cell viability MTS assay on MDCK cells; conditions: dog
RSV-A2 [5] = assay: Virus inactivation (virucidal) assay, RSV-A2; format: cell-based, respiratory syncytial virus; conditions: EC90 dose, 2 h incubation with 200,000 PFUs
IFV-B = assay: Virus inhibition assay, IFV-B on MDCK cells; format: cell-based; conditions: unidentified influenza virus, read-out: EC50 (µM) (95% CI)
HCoV-OC43 [6] = assay: Time-of-addition assay, HCoV-OC43; format: cell-based, human coronavirus; conditions: for EC50: Betacoronavirus 1, HCoV-OC43
Hep-2 cells = assay: Cytotoxic effect microscopically visible in the RSV-A2 screening; format: cell-based, human; set-up: key: -: Cytotoxic effect microscopically visible; conditions: 33 µM
RSV-A2 [7] = assay: Time-of-addition assay, RSV-A2; format: cell-based, respiratory syncytial virus
RSV-A2 [8] = assay: Virus inhibition assay, RSV-A2 on A549 cells; format: cell-based; conditions: human respiratory syncytial virus, read-out: EC50 (µM) (95% CI)
RSV-A2 [9] = assay: Immunofluorescence of dsRNA and viral protein, RSV-A2 in Hep-2 cells; format: cell-based, respiratory syncytial virus; conditions: EC50 (2µM) or 2-fold EC90 dose (30µM), 24h post-infection
RSV-A2 [10] = assay: Virus inhibition assay (plaque reduction), RSV-A2 on Hep-2 cells; format: cell-based; conditions: human respiratory syncytial virus; RSV-A2, Hep-2 cells; read-out: EC50 (µM) (95% CI)
HCoV-OC43 [11] = assay: Virus inhibition assay (focus reduction), HCoV-OC43 on MRC-5 cells; format: cell-based, human coronavirus; conditions: Betacoronavirus 1, OC43, MRC5, read-out: EC50 (µM) (95% CI)
RSV-B = assay: Virus inhibition assay, RSV strain B WV/14617/85 on Hep-2 cells; format: cell-based; conditions: human respiratory syncytial virus; RSV B WV/14617/85, Hep-2 cells; read-out: EC50 (µM) (95% CI)
IFV-A H1N1 [12] = assay: Virus inhibition assay, IFV-A H1N1 on A549 cells; format: cell-based; conditions: Influenza A virus, read-out: EC50 (µM) (95% CI)
[13] = Cell viability MTS assay on MRC-5 cells; format: cell-based; conditions: human, same conditions as HCoV inhibition assay, read-out: CC50 (µM) (95% CI)
HCoV-OC43 [14] = assay: Virus inactivation (virucidal) assay, HCoV-OC43; format: cell-based, human coronavirus; conditions: EC90 dose, 2 h incubation with 200,000 FFUs
in vitro = conditions: human
HCoV-229E = assay: Virus inhibition assay, HCoV-229E on MRC-5 cells; format: cell-based; conditions: Human coronavirus 229E, MRC5, read-out: EC50 (µM) (95% CI)
IFV-A H1N1 [15] = assay: Virus inhibition assay (focus reduction), IFV-A H1N1 on MDCK cells; format: cell-based; conditions: Influenza A virus, read-out: EC50 (µM) (95% CI)
HCoV-OC43 [16] = assay: Virus inhibition assay, HCoV-OC43 on A549 cells; format: cell-based, human coronavirus; conditions: Betacoronavirus 1, read-out: EC50 (µM) (95% CI)

Q: Which EC50 (IFV-A H3N2) does the source give for CC(C)(CC(=O)O)NC(=O)c1cc(-c2ccccc2)c(=O)n2c1sc1ccc(OC3CCCCC3)cc12 [Compound 1] here?
A: 5.96 µM

Q: What about the CC50 [1] of the same compound?
A: 61.3 µM

Q: What about the “Reduction in RSV progeny” value (RSV-A2 [2]; 6 µM every 24 h) of the same compound?
A: 1.1 log

Q: And the “Reduction in RSV progeny” value (RSV-A2 [2]; 12 µM every 24 h)?
A: 1.5 log

Q: And the “Morphology of the bronchial epithelial cells in infected treated sample” value (RSV-A2 [2]; brightfield images, compared to infected untreated)?
A: sufficiently preserved

Q: What about the “Anti-RSV immunopositivity of the epithelia” value (RSV-A2 [2]; end of experiment, immunofluorescence) of the same compound?
A: reduction in immunopositivity

Q: What about the “Cytotoxic effect on the epithelia (LDH assay on basal media)” value [3] of the same compound?
A: did not exert any cytotoxic effect

Q: And the CC50 [4]?
A: 41.1 µM

Q: What about the “Virucidal activity on extracellular RSV particle” value (RSV-A2 [5]) of the same compound?
A: did not directly inactivate

Q: What about the EC50 (IFV-B) of the same compound?
A: 4.21 µM

Q: What about the EC50 (HCoV-OC43 [6]; after infection, read-out: EC50, post-treatment) of the same compound?
A: 7.5 µM

Q: And the EC50 (HCoV-OC43 [6]; during infection, read-out: EC50, co-treatment)?
A: 16.3 µM

Q: What about the “Activity against HCoV-OC43, treatment before the infection” value (HCoV-OC43 [6]; pre-treatment) of the same compound?
A: did not exert inhibitory activity

Q: And the “Cytotoxic effect microscopically visible” value (Hep-2 cells)?
A: - ^a

Q: What about the “Activity against RSV, pre-treatment” value (RSV-A2 [7]; compound added 2 h before infection) of the same compound?
A: not active

Q: And the “Activity against RSV, co-treatment” value (RSV-A2 [7]; compound added with virus inoculum, first 2 h of infection)?
A: not active

Q: And the EC50 (RSV-A2 [7]; human respiratory syncytial virus, RSV, treated 72 h after removal of viral inoculum, read-out: EC50, post-treatment)?
A: 8.2 µM

Q: What about the EC50 (RSV-A2 [8]) of the same compound?
A: 7.78 µM

Q: And the “Effect on nucleic acid replication and viral protein production of RSV-A2” value (RSV-A2 [9])?
A: did not inhibit

Q: And the EC50 (RSV-A2 [10])?
A: 1.3 µM

Q: What about the EC50 (HCoV-OC43 [11]) of the same compound?
A: 4.83 µM

Q: What about the EC50 (RSV-B) of the same compound?
A: 4.23 µM

Q: What about the EC50 (IFV-A H1N1 [12]) of the same compound?
A: 6.29 µM

Q: And the CC50 [13]?
A: 59.6 µM

Q: And the “Virucidal activity: HCoV-OC43 titer” value (HCoV-OC43 [14])?
A: modest—although negligible—reduction

Q: And the CC50 (in vitro)?
A: 57.6 µM

Q: And the CC50 (in vitro; CC50 (µM) (95% CI), A549 cells, HCoV OC43 assay conditions)?
A: 150 µM

Q: And the CC50 (in vitro; CC50 (µM) (95% CI), A549 cells, RSV A2 assay conditions)?
A: 30.8 µM

Q: What about the EC50 (HCoV-229E) of the same compound?
A: 45.3 µM

Q: What about the EC50 (IFV-A H1N1 [15]) of the same compound?
A: 5.49 µM

Q: What about the EC50 (HCoV-OC43 [16]) of the same compound?
A: 8.14 µM
